Experimental data reported in US8563712B2, “Hydroxy-substituted gold(III) porphyrin complexes as histone deacetylase inhibitors” (The University of Hong Kong, priority 2009, dated 2013).

What was measured:
histone H4 acetylation = assay: Western blotting of global acetylated histone H4; assay type: cell-based, human; conditions: MDA-MB-231, six and 24 hours
acetylated histone H4 = assay: ChIP-PCR of acetylated histone H4 at promoter regions; assay type: cell-based, human; conditions: MDA-MB-231, 24 hours
Procedure: To further confirm these unexpected observations, ChIP-PCR was performed to quantify the acetylated histone H4 levels at the promoter regions of the above genes. […] Similar levels of acetylated histone H4 were only observed at 24 hours after treatment.
MDA-MB-231 cells were treated with different drugs for 24 hours. ChiP-PCR was performed for analyzing the levels of acetylated histone H4 at the promoter regions of CTNNB1, WIF1, WNT5B, WNT1, WISP1 and ESR1, using antibody recognizing histone H4 acetylated at lysines 5, 8, 12, and 16. Bar charts represented the quantitative results by real time PCR analysis after normalization against the input DNA. Representative agarose gel images were shown at the bottom. […] Equal protein loading was confirmed by Amido black staining. *, P<0.01 versus vehicle control, n=3.

β-catenin = β-catenin protein level, nuclear activity, phosphorylation and ubiquitination; assay type: cell-based, human; conditions: MDA-MB-231 cells
Text: Aberrant activation of the Wnt/β-catenin signalling plays a key role in the development of many human cancer diseases. Intracellular accumulation of β-catenin protein has been observed in a large portion of human breast tumors. […] On the contrary, cisplatin had no influence on both the protein levels and nuclear activities of β-catenin. In the absence of a Wnt signal, β-catenin is phosphorylated by glycogen synthase kinase-3beta, which facilitates the subsequent ubiquitination and proteasome degradation.

[1] = system: MDA-MB-231 tumor xenograft; assay: Mammary MDA-MB-231 tumor growth in nude mice; assay type: in vivo
Procedure: Most of the animals remained in a tumor-free status until day 25, at which recurrence of a tumor was observed.
MDA-MB-231 cells were inoculated into the mammary fat pad of nude mice as described in Methods. […] Tumor growth (A) and body weight (B) were monitored bi-weekly. C, Kaplan-Meier estimates of the survival curves were calculated and plotted. D, At the end of experiment, tumors were collected and weighed. # and *, P<0.05 versus PET control, n=4-6.

[2] = system: human breast carcinoma cells (BT474, MCF-7, T47D, MDA-MB-231, SKBR3); assay: Crystal violet assay, statements on the whole panel; assay type: cell-based; conditions: five breast carcinoma cell lines
Procedure: (§1) Table 1). The presence of high concentrations of serum had no effects on the potencies of the drug. […] Similar results were observed when the drug exposure time was extended to 48 h. […] The antiproliferative activity of another gold(III) porphyrin complex ([Au^III(TPP)]Cl, gold-1a) in MDA-MB-231 cells was also tested. […] Apoptosis of MDA-MB-231 cells were evaluated by measuring DNA fragmentation.

MDA-MB-231 = assay: Crystal violet anti-proliferative assay; assay type: cell-based, human
Procedure: as §1

MCF7 = assay: Crystal violet anti-proliferative assay; assay type: cell-based, human
Procedure: as §1

T47D = assay: Crystal violet anti-proliferative assay; assay type: cell-based, human
Procedure: as §1

BT474 = assay: Crystal violet anti-proliferative assay; assay type: cell-based, human
Procedure: as §1

SKBR3 = assay: Crystal violet anti-proliferative assay; assay type: cell-based, human
Procedure: as §1

[3] = intraductal 15 mg/kg, end of experiment

In the case of `CC(/C=C/C(=O)NO)=C\[C@@H](C)C(=O)c1ccc(N(C)C)cc1` [TSA, trichostatin A], the “global histone H4 acetylation” value (histone H4 acetylation) is reported as “significant induction”, the “acetylated histone H4 at CTNNB1 promoter” value (acetylated histone H4) is reported as “not significantly altered” and the “acetylated histone H4 at ESR1 promoter” value (acetylated histone H4) is reported as “increased”. The “acetylated histone H4 at WIF1 promoter” value (acetylated histone H4) was “no significant effects”, the “acetylated histone H4 at WISP1 promoter” value (acetylated histone H4) was “not significantly altered” and the “acetylated histone H4 at WNT1 promoter” value (acetylated histone H4) was “no significant effects”. The “acetylated histone H4 at WNT5B promoter” value (acetylated histone H4) was “no significant effects”.

With `N.N.[Cl][Pt][Cl]` [cisplatin] the “nuclear transcriptional activities of β-catenin” value (β-catenin) was “no influence”, the “protein levels of β-catenin” value (β-catenin; from four hours, 0.5% and 10% FBS) was “no influence” and the animals died ([1]; after two intraductal injections) was roughly 40%. For the same molecule, the average tumor weights [1, 3] was 0.42 g, the “tumor weight decreased compared to control group” value [1, 3] was 34% and the “rates of tumor growth compared to gold-2a” value ([1]; intraductal, same dosage (15 mg/kg)) was “attenuated the rates of tumor growth to a much lesser degree”. For the same molecule, the “IC50 values higher when compared to gold-2a” value [2] was 100-3000 times, the IC50 (MDA-MB-231; 24 hours, 0.5% FBS) was 7.37 ± 1.19 µM and the IC50 (MDA-MB-231; 24 hours, 10% FBS) was 21 ± 11.2 µM. It also gave an IC50 (MDA-MB-231; 48 hours, 0.5% FBS) of 6.52 ± 0.48 µM, an IC50 (MDA-MB-231; 48 hours, 10% FBS) of 18.4 ± 3.42 µM and an IC50 (MCF7; 24 hours, 0.5% FBS) of 14.3 ± 1.46 µM. It also gave an IC50 (MCF7; 24 hours, 10% FBS) of 20.1 ± 4.92 µM, an IC50 (MCF7; 48 hours, 0.5% FBS) of 10.1 ± 1.47 µM and an IC50 (MCF7; 48 hours, 10% FBS) of 15.9 ± 2.33 µM. For the same molecule, the IC50 (T47D; 24 hours, 0.5% FBS) was 66.5 ± 12.4 µM, the IC50 (T47D; 24 hours, 10% FBS) was 99.4 ± 5.71 µM and the IC50 (T47D; 48 hours, 0.5% FBS) was 7.76 ± 5.54 µM. It also gave an IC50 (T47D; 48 hours, 10% FBS) of 6.69 ± 3.14 µM, an IC50 (BT474; 24 hours, 0.5% FBS) of 49 ± 0.5 µM and an IC50 (BT474; 24 hours, 10% FBS) of 45.1 ± 8.2 µM. It also gave an IC50 (BT474; 48 hours, 0.5% FBS) of 1.6 ± 0.53 µM, an IC50 (BT474; 48 hours, 10% FBS) of 2.89 ± 0.9 µM and an IC50 (SKBR3; 24 hours, 0.5% FBS) of 65.9 ± 25.5 µM. For the same molecule, the IC50 (SKBR3; 24 hours, 10% FBS) was 76.3 ± 33.8 µM, the IC50 (SKBR3; 48 hours, 0.5% FBS) was 33.9 ± 11 µM and the IC50 (SKBR3; 48 hours, 10% FBS) was 41 ± 7.91 µM.

For [Au^III(TPP)]Cl [gold-1a], the “inhibition of breast tumor growth” value ([1]; sub-lethal concentrations) was “no inhibition” and the “less effective than gold-2a (growth inhibition curves)” value (MDA-MB-231; MDA-MB-231 cells, non-linear regression) was roughly 1000 fold.
